Assay [1] has as its target T1, E-selectin (Homo sapiens, UniProt P16581).
T1 sequence (P16581 whole entry): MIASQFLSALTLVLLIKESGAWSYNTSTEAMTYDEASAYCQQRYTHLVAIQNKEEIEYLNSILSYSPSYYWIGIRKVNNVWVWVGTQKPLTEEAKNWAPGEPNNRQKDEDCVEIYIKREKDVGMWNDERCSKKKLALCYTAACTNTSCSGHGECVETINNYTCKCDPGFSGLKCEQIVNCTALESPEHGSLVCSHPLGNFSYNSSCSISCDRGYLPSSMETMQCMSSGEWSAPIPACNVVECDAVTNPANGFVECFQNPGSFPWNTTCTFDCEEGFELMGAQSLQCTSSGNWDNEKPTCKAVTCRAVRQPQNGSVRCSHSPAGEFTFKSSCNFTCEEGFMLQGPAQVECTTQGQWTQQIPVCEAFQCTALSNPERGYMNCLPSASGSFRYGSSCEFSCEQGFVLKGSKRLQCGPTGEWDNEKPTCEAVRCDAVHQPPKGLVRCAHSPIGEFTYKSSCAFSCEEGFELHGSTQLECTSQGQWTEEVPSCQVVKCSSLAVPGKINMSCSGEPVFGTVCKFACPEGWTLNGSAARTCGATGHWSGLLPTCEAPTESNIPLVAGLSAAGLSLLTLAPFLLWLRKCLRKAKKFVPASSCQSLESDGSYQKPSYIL
The experiment in a line: Inhibitory activity against Selectin E.

Assay [2] deals with T1, E-selectin. The experiment in a line: Ability to inhibit sialyl Lewis X binding to Selectin E was determined.

The compound `CCOC(=O)[C@@H](NC(=O)[C@@H]1C[C@H](O)CN1C(=O)CCCC(=O)O)[C@@H](C)O[C@@H]1O[C@@H](C)[C@@H](O)C(O)C1O` (some centres not stated) registered an IC50 against E-selectin [1] of 1000 µM.

Take `CCOC(=O)[C@@H](NC(=O)[C@H]1C[C@H](O)CN1C(=O)CCCC(=O)O)[C@@H](C)O[C@@H]1O[C@@H](C)[C@@H](O)C(O)C1O` (some centres not stated): at E-selectin [1], the IC50 was 100 µM.

For `CCCCCCCCCCCCCCCCOC(=O)CC[C@H](NCCOCCOCCNC(=O)[C@@H](NC(=O)[C@H]1C[C@H](O)CN1C(=O)CCCC(=O)O)[C@@H](C)O[C@@H]1O[C@@H](C)[C@@H](O)C(O)C1O)C(=O)OCCCCCCCCCCCCCCCC` (some centres not stated), at E-selectin [1], the IC50 was found to be 500 µM.

Regarding `CC(=O)N[C@H]1[C@H]([C@H](O)[C@H](O)CO)O[C@@](O[C@H]2[C@@H](O)[C@@H](CO)O[C@@H](O[C@@H]([C@H](O[C@@H]3O[C@@H](C)[C@@H](O)[C@@H](O)[C@@H]3O)[C@H](C=O)NC(C)=O)[C@H](O)CO)[C@@H]2O)(C(=O)O)C[C@@H]1O` [SIALYL LEWIS X], on E-selectin [2], the half-maximal inhibitory concentration (IC50) was 500 µM.

`CCOC(=O)[C@@H](NC(=O)[C@@H]1C[C@@H](O)CN1C(=O)CCCC(=O)O)[C@@H](C)O[C@@H]1O[C@@H](C)[C@@H](O)C(O)C1O` (some centres not stated) came in with an IC50 against E-selectin [1] of 300 µM.

`CCOC(=O)[C@@H](NC(=O)C1C[C@@H](O)CN1C(=O)CCCC(=O)O)[C@@H](C)O[C@H]1O[C@@H](C)[C@@H](O)C(O)C1O` (single isomer, unassigned): the IC50 against E-selectin [1] was found to be 100 µM.

For `CCCCCCCCCCCCCCCCOC(=O)CC[C@H](NC(=O)CNC(=O)[C@@H](NC(=O)[C@H]1C[C@H](O)CN1C(=O)CCCC(=O)O)[C@@H](C)O[C@@H]1O[C@@H](C)[C@@H](O)C(O)C1O)C(=O)OCCCCCCCCCCCCCCCC` (some centres not stated), the half-inhibitory concentration (IC50) against E-selectin [1] is 500 µM.

As to `CCOC(=O)[C@@H](NC(=O)[C@H]1C[C@@H](O)CN1C(=O)CCCC(=O)O)[C@@H](C)O[C@@H]1O[C@@H](C)[C@@H](O)C(O)C1O` (some centres not stated), half-maximal inhibition against E-selectin [1] (IC50) required 3000 µM.

The compound `CCOC(=O)[C@@H](NC(=O)C(CO)(CO)NC(=O)CCCC(=O)O)[C@@H](C)O[C@@H]1O[C@@H](C)[C@@H](O)C(O)C1O` (some centres not stated) gave an IC50 against E-selectin [1] of 900 µM.

Consider `CCOC(=O)[C@@H](NC(=O)[C@@H]1[C@@H](O)[C@@H](O)CN1C(=O)CCCC(=O)O)[C@@H](C)O[C@@H]1O[C@@H](C)[C@@H](O)C(O)C1O` (some centres not stated), for which half-maximal inhibition against E-selectin [1] (IC50) was put at 50 µM.

Take `C[C@@H]1O[C@@H](O[C@@H]2CCCC[C@H]2NC(=O)[C@@H]2[C@@H](O)[C@@H](O)CN2C(=O)CCCC(=O)O)C(O)C(O)[C@@H]1O` (some centres not stated): at E-selectin [1], the IC50 was determined as 5000 µM.

In turn, `CCOC(=O)[C@@H](NC(=O)[C@H](NC(=O)CCCC(=O)O)[C@@H](O)CO)[C@@H](C)O[C@@H]1O[C@@H](C)[C@@H](O)C(O)C1O` (some centres not stated) displayed a 50% inhibitory concentration (IC50) at E-selectin [1] of 500 µM.
